Reference: PubChem BioAssay (NCI)
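96-well plates; 48 h exposure; 5 concentrations. Endpoints by linear interpolation between flanking doses. Not reached: highest tested concentration assigned. GI50 = concentration required for 50% inhibition of growth. TGI marks complete inhibition of growth.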

Tests used:
Experiment in all cases: DTP human tumour cell line panel, 48 h
HOP-92 NSCLC = system: HOP-92 NSCLC
UACC-62 melanoma = system: UACC-62 melanoma
CCRF-CEM leukemia = system: CCRF-CEM leukemia
NCI-H23 lung = system: NCI-H23 lung
SK-OV-3 ovarian = system: SK-OV-3 ovarian
A549 NSCLC = system: A549 NSCLC
SR leukemia = system: SR leukemia
MALME-3M melanoma = system: MALME-3M melanoma
CAKI-1 renal = system: CAKI-1 renal
MCF7 breast = system: MCF7 breast

**Q.** How did the GI50 (HOP-92 NSCLC) turn out when `Cc1cc(N/N=C/c2nc(-c3ccc(Cl)cc3)oc2C)c2cc(Cl)ccc2n1` was run?
**A.** 3.53 µM

**Q.** What about the TGI (HOP-92 NSCLC) of the same compound?
**A.** 16.6 µM

**Q.** And the GI50 (UACC-62 melanoma)?
**A.** 1.8 µM

**Q.** What about the TGI (UACC-62 melanoma) of the same compound?
**A.** 3.54 µM

**Q.** And the GI50 (CCRF-CEM leukemia)?
**A.** 1.59 µM

**Q.** And the TGI (CCRF-CEM leukemia)?
**A.** 7.18 µM

**Q.** And the GI50 (NCI-H23 lung)?
**A.** 5.34 µM

**Q.** What about the TGI (NCI-H23 lung) of the same compound?
**A.** 19.1 µM

**Q.** What about the GI50 (SK-OV-3 ovarian) of the same compound?
**A.** 3.54 µM

**Q.** What about the TGI (SK-OV-3 ovarian) of the same compound?
**A.** 12.8 µM

**Q.** And the GI50 (A549 NSCLC)?
**A.** 1.76 µM

**Q.** What about the TGI (A549 NSCLC) of the same compound?
**A.** 3.6 µM

**Q.** And the GI50 (SR leukemia)?
**A.** 0.344 µM

**Q.** And the TGI (SR leukemia)?
**A.** 4.84 µM

**Q.** What about the GI50 (MALME-3M melanoma) of the same compound?
**A.** 1.78 µM

**Q.** And the TGI (MALME-3M melanoma)?
**A.** 3.36 µM

**Q.** What about the GI50 (CAKI-1 renal) of the same compound?
**A.** 2 µM

**Q.** What about the TGI (CAKI-1 renal) of the same compound?
**A.** 4.33 µM

**Q.** And the GI50 (MCF7 breast)?
**A.** 1.35 µM

**Q.** And the TGI (MCF7 breast)?
**A.** 2.97 µM

**Q.** Which results are given for `CCN(CCNc1ccc(C)c2sc3ccccc3c(=O)c12)CC(C)(C)O`?
**A.** GI50 (HOP-92 NSCLC): 5.47 µM; TGI (HOP-92 NSCLC): 20.5 µM; GI50 (UACC-62 melanoma): 2.9 µM; TGI (UACC-62 melanoma): 9.48 µM; GI50 (CCRF-CEM leukemia): 6.95 µM; TGI (CCRF-CEM leukemia): 34.5 µM; GI50 (NCI-H23 lung): 15.4 µM; TGI (NCI-H23 lung): 41.8 µM; GI50 (SK-OV-3 ovarian): 11.1 µM; TGI (SK-OV-3 ovarian): 27 µM; GI50 (A549 NSCLC): 6.84 µM; TGI (A549 NSCLC): 25.5 µM; GI50 (SR leukemia): 4.76 µM; TGI (SR leukemia): > 100 µM; GI50 (MALME-3M melanoma): 17.8 µM; TGI (MALME-3M melanoma): 54.6 µM; GI50 (CAKI-1 renal): 5.35 µM; TGI (CAKI-1 renal): 22.4 µM; GI50 (MCF7 breast): 11.1 µM; TGI (MCF7 breast): 26.8 µM

**Q.** `O=Cc1ccc(-c2cccs2)s1` was tested. Which TGI (HOP-92 NSCLC) did it give?
**A.** > 68.1 µM

**Q.** What about the TGI (UACC-62 melanoma) of the same compound?
**A.** 4.42 µM

**Q.** What about the TGI (CCRF-CEM leukemia) of the same compound?
**A.** > 100 µM

**Q.** And the TGI (NCI-H23 lung)?
**A.** > 68.1 µM

**Q.** And the TGI (SK-OV-3 ovarian)?
**A.** > 100 µM

**Q.** And the TGI (A549 NSCLC)?
**A.** > 100 µM

**Q.** What about the TGI (SR leukemia) of the same compound?
**A.** > 100 µM

**Q.** And the TGI (MALME-3M melanoma)?
**A.** > 100 µM

**Q.** What about the TGI (CAKI-1 renal) of the same compound?
**A.** 49.7 µM

**Q.** What about the TGI (MCF7 breast) of the same compound?
**A.** 17.6 µM
